Measurements reported in patent US7045532B2 (Millennium Pharmaceuticals, Inc., priority 1999, dated 2006).
Like-named read-outs stand apart in the source and are kept apart here.

Target: T1, ACE-2 (Homo sapiens, UniProt Q9BYF1)
T1 construct: a stop codon inserted after the serine immediately preceding the transmembrane domain; made in house; host or cells: CHO K1 cells (transient transfection, purified from conditioned medium)
Assay: ACE-2 Competitive Substrate Assay (ACS Assay)
Format: biochemical

[1] = Ki class, compounds tested in 5% DMSO, 12 compound concentrations, Ki=Kiapp/(1+[S]/Km), read-out: Human ACE-2 Activity
[2] = Table 3, very good ACE-2 inhibiting compounds, species not given, read-out: ACE-2 Activity, Ki
[3] = Ki class per key, compounds tested in 5% DMSO, 12 compound concentrations, 25° C., Ki=Kiapp/(1+[S]/Km), read-out: Human ACE-2 Activity

T1 sequence (Q9BYF1 18-740 limits assumed): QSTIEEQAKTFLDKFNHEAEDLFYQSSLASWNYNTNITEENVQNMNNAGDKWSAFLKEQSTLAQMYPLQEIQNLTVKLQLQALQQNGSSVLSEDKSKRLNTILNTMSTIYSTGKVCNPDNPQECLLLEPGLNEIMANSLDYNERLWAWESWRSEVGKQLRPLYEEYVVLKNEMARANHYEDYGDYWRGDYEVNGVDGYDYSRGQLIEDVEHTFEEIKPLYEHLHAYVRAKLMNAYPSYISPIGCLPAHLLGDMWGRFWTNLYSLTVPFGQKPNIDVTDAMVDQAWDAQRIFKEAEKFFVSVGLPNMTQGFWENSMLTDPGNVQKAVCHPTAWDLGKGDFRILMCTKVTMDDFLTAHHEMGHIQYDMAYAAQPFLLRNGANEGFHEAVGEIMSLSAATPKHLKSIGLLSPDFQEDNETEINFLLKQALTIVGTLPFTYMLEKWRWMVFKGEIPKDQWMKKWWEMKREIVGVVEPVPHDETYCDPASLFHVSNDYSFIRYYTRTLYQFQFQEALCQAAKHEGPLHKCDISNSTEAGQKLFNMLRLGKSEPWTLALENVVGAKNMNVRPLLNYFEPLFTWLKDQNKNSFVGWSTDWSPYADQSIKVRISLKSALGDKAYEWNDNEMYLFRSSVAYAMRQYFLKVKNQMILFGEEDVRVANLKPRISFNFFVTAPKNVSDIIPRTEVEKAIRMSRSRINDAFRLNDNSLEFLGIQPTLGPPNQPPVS

CC(C)C[C@H](N[C@@H](Cc1ccc(-c2ccc3c(c2)OCO3)o1)C(=O)O)C(=O)O [OJ, (S,S)-2-[2-(5-Benzo[1,3]dioxol-5-yl-furan-2-yl)-1-carboxy-ethylamino]-4-methyl-pentanoic acid]
Ki [1]: 100 to 500 nM

CC(C)C[C@H](N[C@@H](Cc1ccc(-c2cccc3ccccc23)o1)C(=O)O)C(=O)O [OK]
Ki [1]: 100 to 500 nM

CC(C)C[C@H](N[C@@H](Cc1ccc(-c2ccc(Cl)cc2)o1)C(=O)O)C(=O)O [OL, (S,S)-2-{1-Carboxy-2-[5-(4-chloro-phenyl)-furan-2-yl]-ethylamino}-4-methyl-pentanoic acid]
Ki [1]: > 500 nM

CC(C)C[C@H](N[C@@H](Cc1ccc(-c2ccc(C(F)(F)F)cc2)o1)C(=O)O)C(=O)O [OM, (S,S)-2-{1-Carboxy-2-[5-(4-trifluoromethyl-phenyl)-furan-2-yl]-ethylamino}-4-methyl-pentanoic acid]
Ki [1]: > 500 nM

CC(C)COc1cccc(C[C@H](N[C@@H](CC(C)C)C(=O)O)C(=O)O)c1 [ON, 2-[1-Carboxy-2-(3-isobutoxy-phenyl)-ethylamino]-4-methyl-pentanoic acid]
Ki [1]: > 500 nM

CC(C)C[C@H](N[C@@H](Cc1cccc(OCc2cccc(Cl)c2)c1)C(=O)O)C(=O)O [OO, S,S-2-{1-Carboxy-2-[3-(3-chloro-benzyloxy)-phenyl]-ethylamino}-4-methyl-pentanoic acid]
Ki [1]: < 100 nM
Ki [2]: 50 to 100 nM

CC(C)C[C@H](N[C@@H](Cc1cccc(OCc2ccccc2Cl)c1)C(=O)O)C(=O)O [OP, S,S-2-{1-Carboxy-2-[3-(2-chloro-benzyloxy)-phenyl]-ethylamino}-4-methyl-pentanoic acid]
Ki [1]: > 500 nM

CC(C)C[C@H](N[C@@H](CCc1ccc(OCc2ccccc2)cc1)C(=O)O)C(=O)O [OQ, (S,S) 2-[3-(4-Benzyloxy-phenyl)-1-carboxy-propylamino]-4-methyl-pentanoic acid]
Ki [1]: 100 to 500 nM

CC(C)C[C@H](N[C@@H](Cc1ccn(-c2ccccc2)n1)C(=O)OC(C)(C)C)C(=O)O [OR]
Ki [1]: > 500 nM

CC(C)C[C@H](N[C@@H](Cc1ccc(-c2cccc(Cl)c2)o1)C(=O)O)C(=O)O [OS, (S), (S)-2-{1-Carboxy-2-[5-(3-chloro-phenyl)-furan-2-yl]-ethylamino}-4-methyl-pentanoic acid]
Ki [1]: > 500 nM

CC(C)C[C@H](N[C@@H](Cn1ccn(Cc2cccc(F)c2)c1=O)C(=O)O)C(=O)O [OT, 2-{1-Carboxy-2-[3-(3-fluoro-benzyl)-2-oxo-2,3-dihydro-imidazol-1-yl]-ethylamino]-4-methyl-pentanoic acid]
Ki [1]: < 100 nM
Ki [2]: 50 to 100 nM

CC(C)C[C@H](N[C@@H](Cn1ccn(Cc2ccc(F)c(F)c2)c1=O)C(=O)O)C(=O)O [OU, 2-[1-Carboxy-2-[3-(3,4-difluoro-benzyl)-2-oxo-2,3-dihydro-imidazol-1-yl]-ethylamino]-4-methyl-pentanoic acid]
Ki [1]: 100 to 500 nM

CC(C)C[C@H](N[C@@H](CCC(=O)Nc1nc2ccc(F)cc2s1)C(=O)O)C(=O)O [OV, (S,S)-2-[1-Carboxy-3-(6-fluoro-benzothiazol-2-ylcarbamoyl)-propylamino]-4-methyl-pentanoic acid]
Ki [1]: > 500 nM

CC(C)C[C@H](N[C@@H](Cn1ccn(Cc2cc(F)ccc2F)c1=O)C(=O)O)C(=O)O [OW, 2-[1-Carboxy-2-[3-(2,5-difluoro-benzyl)-2-oxo-2,3-dihydro-imidazol-1-yl]-ethylamino]-4-methyl-pentanoic acid]
Ki [1]: < 100 nM
Ki [2]: 50 to 100 nM

CC(C)C[C@H](N[C@@H](Cc1ccc(NC(=O)c2cc(F)cc(F)c2)cc1)C(=O)O)C(=O)O [OX, (S,S) 2-{1-Carboxy-2-[4-(3,5-difluoro-benzoylamino)-phenyl]-ethylamino}-4-methyl-pentanoic acid]
Ki [3]: < 100 nM
Ki [2]: < 50 nM

CC(C)C[C@H](N[C@@H](Cc1ccc(-c2ccc(F)cc2)cc1)C(=O)O)C(=O)O [OY, (S,S)-[1-Carboxy-2-(4′-fluoro-biphenyl-4-yl)-ethylamino]-4-methyl-pentanoic acid]
Ki [3]: < 100 nM
Ki [2]: < 50 nM

CC(C)C[C@H](N[C@@H](Cc1ccc(-c2ccc3c(c2)OCO3)cc1)C(=O)O)C(=O)O [OZ, 2-[2-(4-Benzo[1,3]dioxol-5-yl-phenyl)-1-carboxy-ethylamino]-4-methyl-pentanoic acid]
Ki [3]: < 100 nM
Ki [2]: 50 to 100 nM

CC(C)C[C@H](N[C@@H](Cc1ccc(-c2csc3ccccc23)cc1)C(=O)O)C(=O)O [PA, 2-[2-(4-Benzo[b]thiophen-3-yl-phenyl)-1-carboxy-ethylamino]-4-methyl-pentanoic acid]
Ki [3]: < 100 nM
Ki [2]: < 50 nM

CC(C)C[C@H](N[C@@H](Cc1cccc(Cc2ccccc2)c1)C(=O)O)C(=O)O [PB, (S,S)-2-[2-(3-Benzyl-phenyl)-1-carboxy-ethylamino]-4-methyl-pentanoic acid]
Ki [3]: > 500 nM

CC(C)C[C@H](N[C@@H](Cc1ccc(-c2ccc(C(F)(F)F)cc2)cc1)C(=O)O)C(=O)O [PC, (S,S)-2-[1-Carboxy-2-(4′-trifluoromethyl-biphenyl-4-yl)-ethylamino]-4-methyl-pentanoic acid]
Ki [3]: < 100 nM
Ki [2]: 50 to 100 nM

CC(C)C[C@H](N[C@@H](Cc1ccc(NS(=O)(=O)c2ccccc2)cc1)C(=O)O)C(=O)O [PE, (S,S) 2-[2-(4-Benzenesulfonylamino-phenyl)-1-carboxy-ethylamino]-4-methyl-pentanoic acid]
Ki [3]: > 500 nM

CC(C)C[C@H](N[C@@H](Cc1cccc(Cc2cccc(Cl)c2)c1)C(=O)O)C(=O)O [PF, 2-[1-Carboxy-2-[3-(3-chloro-benzyl)-phenyl]-ethylamino]-4-methyl-pentanoic acid]
Ki [3]: 100 to 500 nM

CC(C)C[C@H](N[C@@H](Cc1cccc(Cc2cc(Cl)cc(Cl)c2)c1)C(=O)O)C(=O)O [PG, (S,S)-2-{1-Carboxy-2-[3-(3,5-dichloro-benzyl)-phenyl]-ethylamino}-4-methyl-pentanoic acid]
Ki [3]: 100 to 500 nM

CC(C)C[C@H](N[C@@H](Cc1cccc(OCc2csc3ccc(Cl)cc23)c1)C(=O)O)C(=O)O [PH, S,S-2-{1-Carboxy-2-[3-(5-chloro-benzo[b]thiophen-3-ylmethoxy)-phenyl]-ethylamino}-4-methyl-pentanoic acid]
Ki [3]: < 100 nM
Ki [2]: < 50 nM

CC(C)C[C@H](N[C@@H](Cc1ccc(-c2ccccn2)cc1)C(=O)O)C(=O)O [PI, (S,S)-2-[1-Carboxy-2-(4-pyridin-2-yl-phenyl)-ethylamino]-4-methyl-pentanoic acid]
Ki [3]: < 100 nM
Ki [2]: 50 to 100 nM

CC(C)C[C@H](N[C@@H](Cc1ccc(-c2cccnc2)cc1)C(=O)O)C(=O)O [PJ, (S,S)-2-[1-Carboxy-2-(4-pyridin-3-yl-phenyl)-ethylamino]-4-methyl-pentanoic acid]
Ki [3]: < 100 nM
Ki [2]: 50 to 100 nM

CC(C)C[C@H](N[C@@H](Cc1ccc(-c2ccncc2)cc1)C(=O)O)C(=O)O [PK, (S,S)-2-[1-Carboxy-2-(4-pyridin-4-yl-phenyl)-ethylamino]-4-methyl-pentanoic acid]
Ki [3]: 100 to 500 nM

C[C@H](N[C@@H](Cc1cncn1Cc1cc(Cl)cc(Cl)c1)C(=O)O)C(=O)O [PL, (S,S) 2-(1-Carboxy-ethylamino)-3-[3-(3,5-dichloro-benzyl)-3H-imidazol-4-yl]-propionic acid]
Ki [3]: < 100 nM
Ki [2]: < 50 nM

C[C@@H](N[C@@H](Cc1cncn1Cc1cc(Cl)cc(Cl)c1)C(=O)O)C(=O)O [PM, 2-(1-Carboxy-ethylamino)-3-[3-(3,5-dichloro-benzyl)-3H-imidazol-4-yl]-propionic acid]
Ki [3]: > 500 nM

O=C(O)[C@H](CCc1ccccc1)N[C@@H](Cc1cncn1Cc1cc(Cl)cc(Cl)c1)C(=O)O [PN, (S,S) 2-{1-Carboxy-2-[3-(3,5-dichloro-benzyl)-3H-imidazol-4-yl]-ethylamino}-4-phenyl-butyric acid]
Ki [3]: < 100 nM
Ki [2]: < 50 nM

CC(C)C[C@H](N[C@@H](Cc1ccc(-n2cccc2)cc1)C(=O)O)C(=O)O [PO, 2-[1-Carboxy-2-(4-pyrrol-1-yl-phenyl)-ethylamino]-4-methyl-pentanoic acid]
Ki [3]: > 500 nM
Ki [2]: < 50 nM

CC(C)C[C@H](N[C@@H](Cn1ccn(CCc2ccccc2F)c1=O)C(=O)O)C(=O)O [PP, 2-(1-Carboxy-2-{3-[2-(2-fluoro-phenyl)-ethyl]-2-oxo2,3-dihydro-imidazol-1-yl}-ethylamino)-4-methyl-pentanoic acid]
Ki [3]: > 500 nM

CC(C)C[C@H](N[C@@H](CC#Cc1cc(Cl)cc(Cl)c1)C(=O)O)C(=O)O [PR, 2-(1-Carboxy-3-methyl-butylamino)-5-(3,5-dichloro-phenyl)-pent-4-ynoic acid]
Ki [3]: > 500 nM

CC(C)C[C@H](N[C@@H](Cc1ccc(Oc2cc(F)cc(F)c2)cc1)C(=O)O)C(=O)O [PS, 2-[1-Carboxy-2-[4-(3,5-difluoro-phenoxy)-phenyl]-ethylamino]-4-methyl-pentanoic acid]
Ki [3]: > 500 nM

CC(C)C[C@H](N[C@@H](Cc1ccccc1-c1cc(Cl)cc(Cl)c1)C(=O)O)C(=O)O [PT, S,S-2-[1-Carboxy-2-(3′,5′dichloro-biphenyl-2-yl)-ethylamino]-4-methyl-pentanoic acid]
Ki [3]: 100 to 500 nM

CC(C)C[C@H](N[C@@H](Cc1ccc(C(=O)OC(C)(C)C)cc1)C(=O)O)C(=O)O [PU, (S,S) 4-[2-Carboxy-2-(1-carboxy-3-methyl-butylamino)-ethyl]-benzoic acid tert-butyl ester]
Ki [3]: < 100 nM

CC(C)C[C@H](N[C@@H](CN1C(=O)CN(Cc2cc(F)cc(F)c2)C1=O)C(=O)O)C(=O)O [PW, 2-[1-Carboxy-2-[3-(3,5-difluoro-benzyl)-2,5-dioxo-imidazolidin-1-yl]-ethylamino]-4-methyl-pentanoic acid]
Ki [3]: < 100 nM

CC(C)C[C@H](N[C@@H](CN1C(=O)CN(Cc2cc(Cl)cc(Cl)c2)C1=O)C(=O)O)C(=O)O [PX, 2-[1-Carboxy-2-[3-(3,5-dichloro-benzyl)-2,5-dioxo-imidazolidin-1-yl]-ethylamino]-4-methyl-pentanoic acid]
Ki [3]: < 100 nM
